Values of other authors in patent publication US20060009509A1, “Progesterone receptor antagonists, contraceptive regimens, and kits” (Wyeth, priority 2004, published 2006).
Where two headings read alike, the source gives them in different places.

Test system: women

CC#C[C@]1(O)CC[C@H]2[C@@H]3CCC4=CC(=O)CCC4=C3[C@@H](c3ccc(N(C)C)cc3)C[C@@]21C [mifepristone]
women who ovulated at least once (1 mg daily, 3-month treatment (Croxatto 1998)): 14 of 21
ovulations, % of cycles (2 mg continuous, 4 months, Edinburgh site (Brown 2002)): 9.6%
ovulations, % of cycles (2 mg continuous, Shanghai site (Brown 2002)): 2.5%
ovulations, % of cycles (5 mg continuous, 4 months, Edinburgh site (Brown 2002)): 5.2%
ovulations, % of cycles (5 mg continuous, Shanghai site (Brown 2002)): 1.2%
prevention of ovulation (continuous dose of 1 mg, study of 11 subjects (Batista 1992)): appeared to prevent ovulation
prevention of ovulation (continuous dose of 1 mg, study with 5 subjects (Croxatto 1993)): not
prevention of ovulation (continuous low doses 2-10 mg, one treatment cycle, about 5 subjects per dose group (Spitz 1993; Ledger 1992)): prevent ovulation
